Some test systems named below: UO-31; OVCAR-5; NCI-H522; HCT-15; A498; NCI-H226; HT-29; SNB-75; HL-60; ACHN; OVCAR-4; M14; HOP-92; SK-MEL-28; DU-145; CCRF-CEM; TK-10; IGROV-1; COLO 205.
What all share (assay): NCI tumour cell line growth inhibition, 48 h

SMILES strings stand for the structures. Where “and” joins values, the source holds several entries; their conditions need not be identical. Identical values can stand only once.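 96-well plates; 48 h exposure; 5 concentrations. Endpoints by linear interpolation between flanking doses. Not reached: highest tested concentration assigned. GI50 = concentration required for 50% inhibition of growth.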 Calls of active or inactive are those of the source. Cut-off read from the data, not from the text of the source: active = GI50 up to about 1.1 µM and inactive = higher. Bounds are passed on as bounds.

Consider `COc1cc(NCc2ccc3n2-c2ccccc2OC3)cc(OC)c1OC`, for which the GI50 was 16.8 µM (inactive) with UO-31; 46.5 µM (inactive) in the assay on OVCAR-5; 12.7 µM (inactive) in the assay on NCI-H522; 29.9 µM in the assay with HCT-15; 13.5 µM (inactive) in the assay with A498; 28.8 µM (inactive) with NCI-H226. The GI50 in the assay with HT-29 was 35.5 µM (inactive); in the assay with SNB-75, 23.8 µM (inactive); in the assay with HL-60 it was 17.7 µM (inactive); with ACHN it was 30.1 µM (inactive); in the assay on OVCAR-4, 16.1 µM (inactive); in the assay on M14 it was 31 µM (inactive). In addition, the GI50 in the assay on HOP-92 was 11 µM (inactive); in the assay on SK-MEL-28 it was 38.3 µM (inactive); in the assay with DU-145 it was 72.1 µM (inactive); in the assay with CCRF-CEM it was 12.6 µM (inactive); in the assay with TK-10, 32.5 µM (inactive); in the assay with IGROV-1, 14 µM (inactive). Besides, the GI50 in the assay on COLO 205 is 12.9 µM (inactive).

With `Cc1nc2ccccc2c(=O)n1NC(=O)Cc1ccccc1`, the GI50 in the assay with UO-31, in the assay with OVCAR-5, in the assay with NCI-H522, with A498, with NCI-H226 and in the assay with HT-29 was > 100 µM (inactive) each time. Moreover, the GI50 with SNB-75 is 31 µM (inactive); in the assay with HL-60, > 100 µM (inactive); in the assay on ACHN, > 100 µM (inactive); with OVCAR-4 it was > 100 µM (inactive); in the assay with M14 it was > 100 µM (inactive); in the assay on HOP-92, > 100 µM (inactive). In addition, the GI50 with SK-MEL-28, with DU-145, in the assay with CCRF-CEM, in the assay on TK-10, in the assay on IGROV-1 and in the assay with COLO 205 was > 100 µM (inactive) each time.

Consider `N=C(N)N/N=C/c1c(-c2cc([N+](=O)[O-])c(Cl)cc2Cl)nc2sccn12`, for which the GI50 in the assay on UO-31 was 2.05 µM (inactive) and 1.29 µM (inactive); in the assay on OVCAR-5 it was 1.87 µM (inactive); in the assay with NCI-H522 it was 340 nM (active) and 1.76 µM (inactive); in the assay with HCT-15 it was 2.47 µM and 1.26 µM; in the assay with A498, 1.62 µM (inactive) and 1.61 µM (inactive); in the assay with NCI-H226, 2.04 µM (inactive). The GI50 was 0.0155 µM (active) in the assay with SNB-75; 2.27 µM (inactive) and 1.53 µM (inactive) in the assay with HL-60; 527 nM (active) and 1.67 µM (inactive) in the assay with ACHN; 1.66 µM (inactive) in the assay on OVCAR-4; 1.66 µM (inactive) in the assay on M14; 1.8 µM (inactive) and 1.13 µM (inactive) in the assay on HOP-92. Moreover, the GI50 in the assay on SK-MEL-28 was 1.38 µM (inactive) and 1.47 µM (inactive); in the assay with DU-145, 2.15 µM (inactive) and 449 nM (active); with CCRF-CEM, 0.714 µM (active); in the assay with TK-10 it was 1.54 µM (inactive) and 1.57 µM (inactive).

In the case of `CC1(CNCc2ccccc2)CC(CCc2ccccc2)N(C(=O)c2ccc([N+](=O)[O-])cc2)C1Cc1ccc(O)cc1` (centres undefined), the GI50 in the assay on UO-31 was 11.3 µM (inactive); in the assay on OVCAR-5, 17.6 µM (inactive); with NCI-H522, 8.79 µM (inactive); in the assay with HCT-15 it was 12.6 µM; in the assay with A498, 12.9 µM (inactive); with NCI-H226 it was 9.93 µM (inactive). Moreover, the GI50 is 5.65 µM (inactive) with HT-29; 11.3 µM (inactive) with HL-60; 12 µM (inactive) in the assay with ACHN; 9.91 µM (inactive) with OVCAR-4; 13.7 µM (inactive) in the assay with M14; 2.04 µM (inactive) in the assay with HOP-92. Also, the GI50 in the assay on SK-MEL-28 was 31 µM (inactive); with DU-145, 14.7 µM (inactive); with CCRF-CEM, 23.2 µM (inactive); with TK-10, 16.4 µM (inactive); in the assay on IGROV-1 it was 15 µM (inactive); in the assay with COLO 205, 6.5 µM (inactive).

Regarding `C=C(Cl)/C(=C\Cl)CCC(Cl)C(C)C` (centres undefined), the GI50 with UO-31 was > 100 µM (inactive); with OVCAR-5, > 100 µM (inactive); in the assay on NCI-H522, 59.4 µM (inactive); with A498, > 100 µM (inactive); in the assay with NCI-H226 it was > 100 µM (inactive); in the assay on HT-29, > 100 µM (inactive). Further, the GI50 in the assay with SNB-75 is > 100 µM (inactive); with HL-60 it was 56.2 µM (inactive); with ACHN it was > 100 µM (inactive); in the assay with OVCAR-4 it was > 100 µM (inactive); with M14, 84.9 µM (inactive); in the assay with HOP-92 it was > 100 µM (inactive). The GI50 in the assay with SK-MEL-28 is > 100 µM (inactive); in the assay with DU-145, > 100 µM (inactive); in the assay with CCRF-CEM, 41.2 µM (inactive); in the assay on TK-10 it was > 100 µM (inactive); in the assay with IGROV-1 it was > 100 µM (inactive); in the assay with COLO 205 it was > 100 µM (inactive).

With `CCCCC(CCCC)=NNC(=S)SC`, the GI50 is 24.7 µM (inactive) in the assay with UO-31; 38.2 µM (inactive) with OVCAR-5; 17.1 µM (inactive) with NCI-H522; 34.2 µM in the assay with HCT-15; 39.4 µM (inactive) in the assay with A498; 16.1 µM (inactive) in the assay on NCI-H226. The GI50 was 33.6 µM (inactive) in the assay with HT-29; 27.5 µM (inactive) in the assay with SNB-75; 20.7 µM (inactive) in the assay with HL-60; 29.6 µM (inactive) in the assay on ACHN; 18.9 µM (inactive) in the assay with OVCAR-4; 17.3 µM (inactive) with M14. Besides, the GI50 is 38.6 µM (inactive) in the assay on HOP-92; 37.2 µM (inactive) with SK-MEL-28; 30.3 µM (inactive) with DU-145; 17 µM (inactive) in the assay with TK-10; 36.4 µM (inactive) in the assay with COLO 205.

`CC(C)=C=CC(C)(C)NS(=O)(=O)NC(C)(C)C=C=C(C)C`: the GI50 is > 100 µM (inactive) in the assay on OVCAR-5; 56.6 µM (inactive) with NCI-H522; above 100 µM in the assay with HCT-15; > 100 µM (inactive) with A498; > 100 µM (inactive) in the assay on NCI-H226; 75.5 µM (inactive) with HT-29. For the same compound, the GI50 in the assay on SNB-75 is 47.4 µM (inactive); in the assay on HL-60, 28.2 µM (inactive); in the assay on ACHN it was > 100 µM (inactive); in the assay on OVCAR-4 it was > 100 µM (inactive); with M14, > 100 µM (inactive); in the assay on HOP-92, > 100 µM (inactive). Moreover, the GI50 with SK-MEL-28, with DU-145, in the assay with TK-10, in the assay with IGROV-1 and in the assay with COLO 205 was > 100 µM (inactive) each time.

Take `O=C1/C(=N/O)Cc2c(Br)ccc(Br)c21`: the GI50 with UO-31 was > 100 µM (inactive); in the assay on OVCAR-5, > 100 µM (inactive); in the assay with NCI-H522, 27.5 µM (inactive); in the assay with HCT-15, 33.7 µM; with A498 it was 68.1 µM (inactive); in the assay with NCI-H226, 68.1 µM (inactive). Also, the GI50 with HT-29 is > 100 µM (inactive); in the assay with SNB-75 it was > 100 µM (inactive); in the assay with HL-60 it was 26.9 µM (inactive); in the assay with ACHN, 40.7 µM (inactive); with OVCAR-4, 33.3 µM (inactive); with M14, > 100 µM (inactive). Also, the GI50 in the assay on HOP-92 is > 100 µM (inactive); with SK-MEL-28 it was 60.3 µM (inactive); with DU-145, 71.6 µM (inactive); in the assay with CCRF-CEM it was 27.8 µM (inactive); with TK-10, 48.4 µM (inactive); with IGROV-1, 40 µM (inactive).

`O=Cc1[nH]c(=O)[nH]c(=O)c1CCl`: the GI50 with UO-31 was > 100 µM (inactive); in the assay with OVCAR-5, > 100 µM (inactive); in the assay on NCI-H522, > 100 µM (inactive); with HCT-15, above 65.8 µM; with A498, > 100 µM (inactive); in the assay with NCI-H226, > 100 µM (inactive). In addition, the GI50 in the assay with HT-29 is > 88.9 µM (inactive); with SNB-75, 10.9 µM (inactive); with HL-60 it was 38 µM (inactive); in the assay with ACHN, > 83 µM (inactive); with OVCAR-4 it was > 60.5 µM (inactive); with HOP-92, > 62.1 µM (inactive). The GI50 with SK-MEL-28 was > 100 µM (inactive); in the assay on DU-145 it was > 100 µM (inactive); in the assay on CCRF-CEM, > 52.7 µM (inactive); in the assay with TK-10, > 100 µM (inactive); with IGROV-1, > 100 µM (inactive); in the assay with COLO 205 it was > 62.7 µM (inactive).

As for `CSc1nc(C#N)c(/N=C\N(C)C)n1C`, the GI50 in the assay with UO-31 was > 100 µM (inactive); with OVCAR-5, > 100 µM (inactive); in the assay on NCI-H522, > 100 µM (inactive); in the assay on HCT-15, above 100 µM; with A498, > 100 µM (inactive); in the assay on NCI-H226, > 100 µM (inactive). Moreover, the GI50 in the assay on HL-60, in the assay on ACHN, in the assay on OVCAR-4, in the assay on M14, with HOP-92 and with SK-MEL-28 was > 100 µM (inactive) throughout. The GI50 with DU-145, in the assay with CCRF-CEM, in the assay on TK-10, in the assay with IGROV-1 and with COLO 205 was > 100 µM (inactive) throughout.

Take `CC1C(O)Oc2cc3c(cc2C1c1ccccc1O)OCO3` (centres undefined): the GI50 was 28.8 µM (inactive) in the assay with UO-31; 45.7 µM (inactive) with OVCAR-5; 17.1 µM (inactive) with NCI-H522; 33.1 µM in the assay with HCT-15; 29.6 µM (inactive) with A498; 18.6 µM (inactive) in the assay on NCI-H226. For the same compound, the GI50 in the assay on HT-29 was 23.3 µM (inactive); in the assay on SNB-75, 24.6 µM (inactive); with HL-60, 17.9 µM (inactive); in the assay with ACHN, 29.6 µM (inactive); in the assay with M14 it was 30.5 µM (inactive); in the assay with HOP-92, 15.2 µM (inactive). In addition, the GI50 in the assay on SK-MEL-28 is 25.8 µM (inactive); with DU-145, 40.6 µM (inactive); in the assay with CCRF-CEM it was 16.7 µM (inactive); with TK-10, 27.4 µM (inactive); in the assay on IGROV-1, 28 µM (inactive); with COLO 205, 16.2 µM (inactive).

The values above are taken from ChEMBL document CHEMBL1201862, “PubChem BioAssay data set” (2004).
